According to PMC9448371, “Synthesis and biological activity evaluation of 3-(hetero) arylideneindolin-2-ones as potential c-Src inhibitors” (Journal of Enzyme Inhibition and Medicinal Chemistry, 2022):
Read-outs that look alike come from different tables or passages of the source.

What was measured:
c-Src = biological target: T1, c-Src (Homo sapiens, UniProt P12931); assay: c-Src kinase inhibition assay (ADP-Glo Kinase Assay); type: biochemical; conditions: for IC50: 100 μM ATP, read-out: ID50 (the source's name); for Ki: calculated from ID50 assuming fully ATP-competitive inhibition
T1 construct: His6 (N); purchased Merck-Millipore 14–326
Protocol: To avoid peptide adsorption to the plastic surface, protein low-binding tubes were used. ADP-Glo Kinase Assay (Promega) was then used to detect kinase activity accordingly with manufacturer’s instruction with minor modifications. In details, reactions were transferred to white 384 well-plates and stopped by adding 10 µL of ADP-Glo Reagent (Promega) for 50 min at rt. 20 μL of Detection Reagent (Promega) was then added for 30 min and the reaction read using GloMax Discover microplate reader (Promega). Data were plotted using GraphPad Prism 5.0. […] Compounds tested were assumed to act as fully ATP-competitive inhibitors. Therefore, Ki values were calculated accordingly to Equation (2).

[1] = system: human MCF7 breast cancer cell line; assay: Cytotoxicity, growth inhibition MTS assay; type: cell-based; conditions: Homo sapiens, MCF7, 72 h exposure, mean ± SD, triplicate, read-out: MCF-7 (IC50)
Protocol: Cytotoxicity experiments were carried out using the human MCF7 breast cancer cell line (ATCC HTB-22). […] Compound potency was determined by a growth inhibition assay (CellTiter 96® Aqueous One Solution Cell Proliferation Assay MTS, Promega). 24 h after seeding in a 96-well plate, cells were exposed to the compounds (concentration range 1–100 µM) and 72 h later, 20 µL of 3–(4,5-dimethylthiazol-2-yl)-5–(3-carboxymethoxyphenyl)-2–(4-sulfophenyl)-2H-tetrazolium salt (MTS) was added to each well. […] Experiments were performed in triplicate.

[2] = 100 μM compound, in-house collection screen, read-out: % Inhibition Src (100 μM)
[3] = 100 µM compound, Table 2, read-out: % Inhibition 100 µM
[4] = 10 µM compound, Table 3, tested as E/Z mixtures
[5] = 100 µM compound, Table 3, tested as E/Z mixtures, read-out: % Inhibition 100 µM
[6] = 100 µM compound, Table 3, tested as E/Z mixtures, 100 µM

T1 sequence (P12931 whole entry): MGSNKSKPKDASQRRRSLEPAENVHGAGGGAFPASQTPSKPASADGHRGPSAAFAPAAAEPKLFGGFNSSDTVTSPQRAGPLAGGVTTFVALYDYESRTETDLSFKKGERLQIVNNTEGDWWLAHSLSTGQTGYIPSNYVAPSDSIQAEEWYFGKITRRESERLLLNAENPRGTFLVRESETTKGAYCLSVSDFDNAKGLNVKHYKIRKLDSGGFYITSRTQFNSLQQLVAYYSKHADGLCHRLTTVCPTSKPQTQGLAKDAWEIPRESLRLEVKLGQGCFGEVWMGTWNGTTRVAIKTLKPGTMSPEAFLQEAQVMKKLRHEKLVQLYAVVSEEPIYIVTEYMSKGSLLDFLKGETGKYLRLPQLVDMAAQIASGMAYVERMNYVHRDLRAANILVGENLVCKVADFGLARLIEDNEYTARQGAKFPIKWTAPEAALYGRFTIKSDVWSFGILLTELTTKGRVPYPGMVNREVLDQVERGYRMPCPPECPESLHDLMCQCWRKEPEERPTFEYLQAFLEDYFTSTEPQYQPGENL

Structure (SMILES): NC(=O)n1ccc2ccc(-c3ccc(F)cc3)nc21 [Compound 1]
- % Inhibition Src (100 μM) (c-Src; 100 μM compound, in-house collection screen, listed as C00001, 100 µM): 58.1%
- inhibition at 100 µM (c-Src; [2]): ~58%

Structure (SMILES): NC(=O)n1ccc2ccc(-c3ccccc3F)nc21 [Compound 2]
- inhibition at 100 µM (c-Src; [2]): 28.6%

Structure (SMILES): NC(=O)c1cc2cccc(-c3ccccc3)c2[nH]1 [Compound 3]
- inhibition at 100 µM (c-Src; [2]): 34.8%

Structure (SMILES): NC(=O)n1ccc2ccc(N3CCCC3)nc21 [Compound 4]
- inhibition at 100 µM (c-Src; [2]): 4%

Structure (SMILES): NC(=O)Nc1ccn([C@H]2C[C@H](O)[C@@H](CO)O2)c(=O)n1 [Compound 5]
- inhibition at 100 µM (c-Src; [2]): 1.8%

Structure (SMILES): NC(=O)Nc1ccn([C@@H]2O[C@H](CO)CC2(F)F)c(=O)n1 [Compound 6]
- inhibition at 100 µM (c-Src; [2]): 10.3%

Structure (SMILES): O=C1/C(=C\c2ccc(-c3ccccc3)cc2)c2ccccc2N1O [Compound 7]
- inhibition at 100 µM (c-Src; [2]): 77.3%

Structure (SMILES): O=C(Nc1ccccc1)Nc1ccc(/C=C2\C(=O)N(O)c3ccccc32)cc1 [Compound 8]
- inhibition at 100 µM (c-Src; [2]): 83.2%
- IC50 (c-Src; Table 1): 12.5 µM

Structure (SMILES): O=C(Nc1ccccc1)Nc1ccc(/C=C2\C(=O)Nc3ccccc32)cc1 [Compound 9]
- inhibition at 100 µM (c-Src; [2]): 84%

Structure (SMILES): CN(C)c1nsc2c1C(=O)c1ccccc1C2=O [Compound 10]
- % Inhibition Src (100 μM) (c-Src; 100 μM compound, in-house collection screen, 100 µM): 43%
- % Inhibition Src (100 μM) (c-Src; 100 μM compound, in-house collection screen, listed as C00004, 100 µM): 43.5%

Structure (SMILES): Nc1nsc2c1C(=O)c1ccccc1C2=O [Compound 11]
- inhibition at 100 µM (c-Src; [2]): 2.2%

Structure (SMILES): COc1cc2c(cc1OC)C(c1ccc(OC(C)=O)cc1)CC(=O)N2 (centres unmarked) [Compound 12]
- inhibition at 100 µM (c-Src; [2]): 40%

Structure (SMILES): CC(=O)c1cccc(-c2nc3n(n2)CC(c2ccccc2)=NN3)c1 [Compound 13]
- inhibition at 100 µM (c-Src; [2]): 90%
- IC50 (c-Src; Table 1): 50 µM

Structure (SMILES): COc1ccc(-c2nc3n(n2)CC(c2ccccc2)=NN3)cc1 [Compound 14]
- % Inhibition Src (100 μM) (c-Src; 100 μM compound, in-house collection screen): did not affect the enzyme activity

Structure (SMILES): Cc1ccc(C2=CCNC(=O)C3C2c2ccccc2N3C)cc1 (centres unmarked) [Compound 16]
- inhibition at 100 µM (c-Src; [2]): 0.6%

Structure (SMILES): O=C1c2cc(=O)c3cc(O)ccc3n2C2CCCN12 (centres unmarked) [Compound 18]
- inhibition at 100 µM (c-Src; [2]): 15.5%

Structure (SMILES): NC(=O)c1noc2c1CCCC2O (centres unmarked) [Compound 19]
- inhibition at 100 µM (c-Src; [2]): 12.8%

Structure (SMILES): CCCN1CC2=C(CC(C)(C)CC2=O)N(c2ccc(C(N)=O)cc2)C1 [Compound 20]
- inhibition at 100 µM (c-Src; [2]): 7.7%

Structure (SMILES): O=C1C(=Cc2cccc(Oc3ccccc3)c2)c2ccccc2N1O [Compound 22, 1-hydroxy-3–(3-phenoxybenzylidene)indolin-2-one]
- inhibition at 10 µM (c-Src; 10 µM compound, Table 2): 32.1 ± 3.53%
- inhibition at 100 µM (c-Src; [3]): 64.6 ± 3.8%

Structure (SMILES): O=C1/C(=C\C=C\c2ccc(-c3ccccc3)cc2)c2ccccc2N1O [Compound 23]
- inhibition at 10 µM (c-Src; 10 µM compound, Table 2): 22.8 ± 2.94%
- inhibition at 100 µM (c-Src; [3]): 57.4 ± 6.31%

Structure (SMILES): O=C1/C(=C/c2ccc(-c3ccccc3)cc2)CCN1O [Compound 24]
- inhibition at 10 µM (c-Src; 10 µM compound, Table 2): 34.2 ± 0.6%
- inhibition at 100 µM (c-Src; [3]): 87.5 ± 7.41%

Structure (SMILES): COc1cc(OC)c(/C=C2/C(=O)Nc3ccccc32)c(OC)c1 [Compound 25]
- inhibition at 10 µM (c-Src; 10 µM compound, Table 2): 23.1 ± 5.55%
- inhibition at 100 µM (c-Src; [3]): 35.8 ± 3.69%

Structure (SMILES): O=C1Nc2cc(Cl)ccc2/C1=C/c1cc(Br)c(O)c(Br)c1 [Compound 26]
- inhibition at 10 µM (c-Src; 10 µM compound, Table 2): 67%
- % Inhibition 10 µM (c-Src; 10 µM compound, Table 2, listed as C00026, 10 µM): 67.03 ± 0.10%
- % Inhibition 100 µM (c-Src; 100 µM compound, Table 2, listed as C00026, 100 µM): 94.70 ± 0.30%
- inhibition at 100 µM (c-Src; [3]): 95%
- IC50 (c-Src; Table 2): 5.63 µM
- Ki (c-Src; Table 2): 3.8 µM

Structure (SMILES): O=C1Nc2ccccc2C1=Cc1ccc(-c2ccccc2)s1 [Compound 27, 3-((5-phenylthiophen-2-yl)methylene)indolin-2-one]
- inhibition at 10 µM (c-Src; 10 µM compound, Table 2): 25.3 ± 9.71%
- inhibition at 100 µM (c-Src; [3]): 45.6 ± 7.85%
- melting point: 257 to 258 °C

Structure (SMILES): COc1cc2c(cc1OC)C(=Cc1cc(Br)c(O)c(Br)c1)C(=O)N2 [Compound 29, 3–(3,5-dibromo-4-hydroxybenzylidene)-5,6-dimethoxyindolin-2-one]
- inhibition at 10 µM (c-Src; 10 µM compound, Table 2): 39.8 ± 3.16%
- inhibition at 100 µM (c-Src; [3]): 78.6 ± 1.32%

Structure (SMILES): COc1cc2c(cc1OC)C(=Cc1ccc(-c3ccccc3)cc1)C(=O)N2 [Compound 30, 3-([1,1′-biphenyl]-4-ylmethylene)-5,6-dimethoxyindolin-2-one]
- inhibition at 10 µM (c-Src; 10 µM compound, Table 2): 9.39 ± 19.2%
- inhibition at 100 µM (c-Src; [3]): 42 ± 8.91%
- melting point: 231 to 232 °C

Structure (SMILES): N#Cc1ccc(C=C2C(=O)Nc3cc(Cl)ccc32)cc1 [Compound 32, 4-((6-chloro-2-oxoindolin-3-ylidene)methyl)benzonitrile]
- inhibition at 10 µM (c-Src; [4]): 35.7 ± 9.66%
- inhibition at 100 µM (c-Src; [5]): 89 ± 1.35%
- IC50 (c-Src; Table 3): > 10 µM
- melting point: 310 °C (dec.)

Structure (SMILES): O=C1Nc2cc(Cl)ccc2C1=Cc1ccc(O)cc1 [Compound 35, 6-chloro-3–(4-hydroxybenzylidene)indolin-2-one]
- inhibition at 10 µM (c-Src; [4]): 37.9 ± 0.35%
- inhibition at 100 µM (c-Src; [5]): 86.9 ± 2.5%
- IC50 (c-Src; Table 3): > 10 µM
- melting point: 330 to 331 °C (dec.)

Structure (SMILES): O=C1Nc2cc(Cl)ccc2C1=Cc1ccc(C(=O)O)cc1 [Compound 36, 4-((6-chloro-2-oxoindolin-3-ylidene)methyl)benzoic acid]
- inhibition at 10 µM (c-Src; [4]): 4.15 ± 1.28%
- % Inhibition 100 µM (c-Src; [6]): very low activity
- inhibition at 100 µM (c-Src; [5]): 47.2 ± 9.33%
- melting point: 271 to 272 °C (dec.)

Structure (SMILES): O=C1Nc2cc(Cl)ccc2C1=Cc1ccc(OCc2ccccc2)cc1 [Compound 37, 3–(4-(benzyloxy)benzylidene)-6-chloroindolin-2-one]
- inhibition at 10 µM (c-Src; [4]): 16.9 ± 13.9%
- inhibition at 100 µM (c-Src; [5]): 84.27 ± 0.82%
- melting point: 239 to 240 °C (dec.)

Structure (SMILES): O=C1Nc2cc(Cl)ccc2C1=Cc1cccc(Oc2ccccc2)c1 [Compound 38, 6-chloro-3–(3-phenoxybenzylidene)indolin-2-one]
- inhibition at 10 µM (c-Src; [4]): 31.5 ± 3.16%
- inhibition at 100 µM (c-Src; [5]): 53.6 ± 12.9%
- melting point: 188 to 189 °C

Structure (SMILES): COC(=O)c1ccc(COc2ccc(C=C3C(=O)Nc4cc(Cl)ccc43)cc2)cc1 [Compound 44, Methyl-4-((4-((6-chloro-2-oxoindolin-3-ylidene)methyl)phenoxy)methyl)benzoate]
- inhibition at 10 µM (c-Src; [4]): 41 ± 10.3%
- % Inhibition 100 µM (c-Src; [6]): good activity
- inhibition at 100 µM (c-Src; [5]): 92.1 ± 3.84%
- melting point: 201 to 202 °C

Structure (SMILES): O=C1Nc2cc(Cl)ccc2C1=Cc1ccc(OCC2CC2)cc1 [Compound 45, 6-Chloro-3–(4-(cyclopropylmethoxy)benzylidene)indolin-2-one]
- inhibition at 10 µM (c-Src; [4]): 14.4 ± 2.09%
- % Inhibition 100 µM (c-Src; [6]): almost inactive
- inhibition at 100 µM (c-Src; [5]): 34.4 ± 13.3%
- melting point: 231 to 232 °C

Structure (SMILES): O=C(O)COc1ccc(C=C2C(=O)Nc3cc(Cl)ccc32)cc1 [Compound 46, 2–(4-((6-Chloro-2-oxoindolin-3-ylidene)methyl)phenoxy)acetic acid]
- inhibition at 10 µM (c-Src; [4]): 0%
- % Inhibition 100 µM (c-Src; 100 µM compound, Table 3, tested as E/Z mixtures, listed as C00041, 100 µM): 70.56 ± 4.80%
- inhibition at 100 µM (c-Src; [5]): 70%
- melting point: 197 °C (dec.)

Structure (SMILES): O=C1Nc2cc(Cl)ccc2C1=Cc1ccc(OCc2ccc(C(=O)O)cc2)cc1 [Compound 47, 4-((4-((6-chloro-2-oxoindolin-3-ylidene)methyl)phenoxy)methyl)benzoic acid]
- inhibition at 10 µM (c-Src; [4]): 63.4 ± 1.06%
- % Inhibition 100 µM (c-Src; 100 µM compound, Table 3, tested as E/Z mixtures, listed as C00042, 100 µM): 93.88 ± 0.58%
- inhibition at 100 µM (c-Src; [5]): 94%
- IC50 (c-Src; Table 3): 5.31 µM
- Ki (c-Src; Table 3): 3.58 µM

Structure (SMILES): O=C1Nc2cc(Cl)ccc2C1=Cc1ccc(-c2ccccc2)s1 [Compound 48, 6-chloro-3-((5-phenylthiophen-2-yl)methylene)indolin-2-one]
- inhibition at 10 µM (c-Src; [4]): 12.8 ± 1.32%
- inhibition at 100 µM (c-Src; [5]): 87.7 ± 3.04%
- melting point: 233 to 234 °C

Structure (SMILES): Cc1nc(Nc2ncc(C(=O)Nc3c(C)cccc3Cl)s2)cc(N2CCN(CCO)CC2)n1 [Dasatinib, reference compound]
- IC50 [1]: 27 ± 1 µM
